In article PMC4163382, “Symbiotic Plant Peptides Eliminate Candida albicans Both In Vitro and in an Epithelial Infection Model and Inhibit the Proliferation of Immortalized Human Cells” (BioMed Research International, 2014):
Peptide text beside a SMILES is read from it.

Assays:
[1] = system: PK E6/E7 vaginal epithelial cells; assay: MTT assay, cytotoxicity on human epithelial cells; type: cell-based; settings: peptide in PBgluc 3 hours at 37°C, 24 hours regeneration in CKM, MTT 4 hours, 560 nm
Method: The immortalized human vaginal epithelial cell line PK E6/E7 [15] was cultured in serum-free CKM supplemented with 0.005 μg/mL recombinant epidermal growth factor, 50 μg/mL bovine pituitary extract, L-glutamine, and antibiotic/antimycotic solution (Life Technologies) in a CO2 thermostat at 37°C [16]. Cells at 60–70% confluence were used in subsequent experiments.
MTT Assay. PK E6/E7 vaginal epithelial cells were seeded in the wells of a 96-well plate at a density of 1 × 10^4 cells per well in a final volume of 100 μL. CKM was then aspirated and 100 μL of the appropriate peptide diluted in PBgluc was added. After 3 hours of incubation at 37°C, the peptide solution was removed, and the cells were let to regenerate in CKM for 24 hours. Then 5 mg/mL 3-[4,5-dimethylthiazol-2-yl]-2,5-diphenyltetrazolium bromide (MTT) was added to each well and the plate was placed to 37°C for 4 hours. The amount of formazan formed by the activity of the mitochondrial succinate dehydrogenase of living cells was measured by using a microtiter plate reader (FLUOstar OPTIMA) at the wavelength of 560 nm.
10 μg/mL of primycin, a macrolide lactone antibiotic complex that rapidly kills PK cells, was used as a control for cytotoxicity in both assays.
(§1) MTT assays and impedance measurements were performed in at least four technical parallels and two biological replicates; all the data are presented as mean ± standard deviation. Significance was calculated with Newman-Keuls post hoc test using the GraphPad Prism version 5 for Windows and a probability (P) value of less than 0.05 was considered significant.

[2] = system: C. albicans strains WO-1 and Sc 5314; assay: Microdilution antifungal assay, summary for C. albicans; type: cell-based, Candida albicans; settings: strains WO-1 and Sc 5314, LSM medium, microdilution plate assay
Method: (§2) The antifungal activity of the NCR peptides against C. albicans strains and other Candida species was determined in vitro using 96-well flat bottom microtiter plates (Sarstedt). Fifty microliters of dilutions from each peptide (final concentrations in the assays ranged from 2.5 to 100 μg/mL) was added to 50 μL of 10^4 cells mL^−1 and 10^5 cells mL^−1 in LSM. The plates were incubated at 30°C and the peptide concentrations that prevented the germination of yeast cells were determined by microscopic analysis and measurement of absorbance at 600 nm with a microtiter plate reader (FLUOstar OPTIMA; BMG Labtech) after 24 and 48 hours. Minimal inhibitory concentration (MIC) was determined as the lowest concentration of the peptide at which there was no visible and measurable growth after 24 hours of incubation. To determine whether the antifungal effect was fungistatic or fungicidal, 10 μL from each treatment was dropped onto solid YPD plate after 3 and 24 hours. Plates were incubated at 30°C for 48 hours and developing colonies were observed. Minimal fungicidal concentration (MFC) was defined where no fungal growth could be observed.

C. albicans WO-1 cells [3] = assay: Cell permeability assay (calcein release); type: cell-based, Candida albicans; settings: calcein-loaded C. albicans WO-1, 10 mM potassium phosphate buffer pH 7.0, peptide 50 μg/mL, fluorescence 485/530 nm
Method: Cell permeability was monitored by the release of the intracellularly accumulated dye calcein. Overnight C. albicans WO-1 cells were washed twice with and resuspended in 10 mM potassium phosphate buffer (pH = 7.0) at a concentration of 10^7 cells mL^−1. Cells were loaded with acetomethoxy-calcein at a final concentration of 5 μM for 2 hours at room temperature. Cells were washed three times to remove the extracellular dye and then 100 μL of the suspension was transferred to FIA black 96-well plates. NCR peptides were then added at a concentration of 50 mg/L, and the release of calcein (formed by the cells' esterases) was measured by its fluorescence in a microtiter plate reader (FLUOstar OPTIMA) at excitation and emission wavelengths of 485 nm and 530 nm, respectively. Calcein efflux was calculated as previously reported.

[4] = system: PK E6/E7 vaginal epithelial cells infected with C. albicans WO-1; assay: Vaginal epithelial cell - C. albicans coculture (RTCA); type: cell-based, human; settings: PK E6/E7 + C. albicans WO-1, MOI of 5, 3 hours coculture then peptide 3 hours in PBgluc at both 25 and 50 μg/mL, RTCA at 40 hours
Method: PK E6/E7 cells were seeded in 96-well E-plates as described above for RTCA. On the next day, an overnight culture of C. albicans WO-1 was diluted to OD = 1 and let to grow until OD = 1.5–2. The fungal cell suspension was diluted in antibiotic/antimycotic-free CKM and was added to the human cells with a multiplicity of infection (MOI) of 5. After 3 hours of coculture at 37°C, CKM medium was replaced with NCR peptides in PBgluc. After 3 hours of incubation, peptides were removed and 200 μL of fresh antibiotic/antimycotic-free CKM was added. Subsequent measurements were performed as described above.
as §1

C. albicans strain WO-1 = type: cell-based, Candida albicans; settings: C. albicans WO-1, LSM medium, 30°C, 24 hours of treatment, peptide 2.5 to 100 μg/mL, microscopy and absorbance at 600 nm; mean (±spread)
Method: (§3) The C. albicans strains WO-1 and Sc5314 were maintained on YPD medium (1% (w/v) yeast extract, 2% (w/v) peptone, 2% (w/v) dextrose, 2% (w/v) agar; Beckton, Dickinson and Company). Hyphal growth was induced in complete keratinocyte medium (CKM; Life Technologies) without serum. The effect of the NCR peptides on free-living fungi was investigated either in PBgluc buffer (1 mM KH2PO4, 3 mM Na2HPO4 × 7H2O, 5% glucose, pH = 7.0) or in low-salt fungal medium (LSM) composed of 5 mM K2HPO4, 100 μM MgSO4, 10 μM FeCl, 0.2 μM CoCl2, 0.2 μM CuSO4, 4 μM Na2MoO4, 1 μM H3BO3, 0.2 μM KI, 1 μM ZnSO4, 0.2 μM MnSO4, 2% glucose, 0.2% asparagine, 40 μg/mL methionine, 4 μg/mL myo-inositol, 0.4 μg/mL biotin, 2 μg/mL thiamine-HCl, and 0.4 μg/mL pyridoxine-HCl.
as §2

[5] = system: C. albicans strain Sc5314; type: cell-based, Candida albicans; settings: C. albicans Sc5314, LSM medium, 30°C, 24 hours of treatment, peptide 2.5 to 100 μg/mL, microscopy and absorbance at 600 nm; mean (±spread)
Method: as §3, §2

C. albicans WO-1 = type: cell-based, Candida albicans; settings: 10 μL dropped onto solid YPD, 30°C for 48 hours, mean (±spread); for Minimal fungicidal concentration, 3 h: C. albicans WO-1, 3 hours of treatment; for Minimal fungicidal concentration, 24 h: C. albicans WO-1, 24 hours of treatment
Method: as §2

C. albicans WO-1 cells [6] = assay: Localization of FITC-labeled peptides (confocal microscopy); type: cell-based, Candida albicans; settings: 5 μg/mL (sublethal), 3 hours at 30°C in LSM
Method: C. albicans WO-1 cells were labeled with 5 μg/mL of the FM4-64 membrane stain (Life Technologies) and 0.5 μg/mL of the DNA stain 4′,6-diamidino-2-phenylindole (DAPI, Sigma) for 15 minutes after 2 hours of peptide treatment. Images were captured with an Axio Observer Z.1 (Zeiss) fluorescent microscope. For studying the interaction of peptides with the fungus, an overnight C. albicans WO-1 culture was diluted in LSM and treated with FITC-conjugated peptides (at the sublethal concentration of 5 μg/mL) for 3 hours at 30°C. Cells were then centrifuged for 4 minutes at 600 rpm and the unbound peptides were removed by gentle pipetting of the supernatant and cells were resuspended in LSM. The cell suspension was dropped onto a coverslip and images were taken with an Olympus FluoView FV1000 confocal laser-scanning microscope.

Compound | Concentration that provoked cell death / toxicity [1] | Anticandidal activity against the yeast form of growing C. albicans [2] | Calcein (dye) efflux (C. albicans WO-1 cells [3]) | Prevention of C. albicans induced epithelial cell death [4] | Minimal inhibitory concentration, WO-1 (C. albicans strain WO-1) | Minimal inhibitory concentration, Sc5314 [5] | Minimal fungicidal concentration, 3 h (C. albicans WO-1) | Minimal fungicidal concentration, 24 h (C. albicans WO-1) | Localization of FITC-labeled peptide in C. albicans cells (C. albicans WO-1 cells [6])
CSCC[C@H](NC(=O)[C@H](CCCCN)NC(=O)[C@H](CCCNC(=N)N)NC(=O)[C@@H]1CCCN1C(=O)[C@H](CS)NC(=O)[C@H](Cc1c[nH]cn1)NC(=O)CNC(=O)[C@@H](NC(=O)[C@H](Cc1c[nH]cn1)NC(=O)[C@H](CCCCN)NC(=O)[C@H](CS)NC(=O)CNC(=O)[C@H](CC(N)=O)NC(=O)[C@H](CCCCN)NC(=O)[C@@H](N)CCSC)[C@@H](C)O)C(=O)N[C@@H](CS)C(=O)NCC(=O)N[C@@H](C)C(=O)N[C@@H](CCCCN)C(=O)N[C@H](C(=O)N[C@H](C(=O)N[C@@H](CCCCN)C(=O)N[C@@H](CS)C(=O)N[C@@H](CCCNC(=N)N)C(=O)N[C@@H](CC(N)=O)C(=O)N[C@@H](CC(N)=O)C(=O)N[C@@H](CCCCN)C(=O)N[C@@H](CS)C(=O)N[C@@H](CCC(N)=O)C(=O)N[C@@H](CS)C(=O)N[C@H](C(=O)N[C@@H](CCC(N)=O)C(=O)N[C@@H](CC(C)C)C(=O)O)C(C)C)[C@@H](C)O)[C@@H](C)O [NCR192] (H-MKNGCKHTGHCPRKMCGAKTTKCRNNKCQCVQL-OH; N-terminus and C-terminus assumed) | 100 µg/mL | exhibited anticandidal activity | 22.82 ± 11.16% | could be prevented | – | – | – | – | –
VNDCIRIHCKDDFDCIENRLQVGCRLQREKPRCVNLVCRCLRR [NCR055, chemically synthesized mature nodule-specific cysteine-rich (NCR) peptide of Medicago truncatula] | – | – | – | – | 50 (±4) μg/mL | 50 (±3) μg/mL | – | – | –
RLNTTFRPLNFKMLRFWGQNRNIMKHRGQKVHFSLILSDCKTNKDCPKLRRANVRCRKSYCVPI [NCR335, cationic chemically synthesized mature NCR peptide of Medicago truncatula] | > 25 µg/mL | exhibited anticandidal activity | 43.12 ± 13.05% | could be prevented | 11 (±1) μg/mL | 12.5 (±2.5) μg/mL | 7 (±1) μg/mL | 8 (±2) μg/mL | –
SFLGTFISSCKRDKDCPKLYGANFRCRKGTCVPPI [NCR035, chemically synthesized mature nodule-specific cysteine-rich (NCR) peptide of Medicago truncatula] | – | – | – | – | – | – | – | – | did not label the C. albicans cells
CC[C@H](C)[C@H](NC(=O)[C@H](CS)NC(=O)CNC(=O)[C@H](CC(N)=O)NC(=O)[C@@H](N)CCCNC(=N)N)C(=O)N[C@H](C(=O)N[C@@H](CC(=O)O)C(=O)N1CCC[C@H]1C(=O)N[C@@H](CCCNC(=N)N)C(=O)N[C@@H](CS)C(=O)N1CCC[C@H]1C(=O)N[C@@H](Cc1ccc(O)cc1)C(=O)N[C@@H](CCC(N)=O)C(=O)N[C@@H](CCC(N)=O)C(=O)N[C@@H](CS)C(=O)N[C@@H](CCCNC(=N)N)C(=O)N[C@@H](CCCNC(=N)N)C(=O)N1CCC[C@H]1C(=O)N[C@@H](CC(C)C)C(=O)N[C@@H](Cc1ccc(O)cc1)C(=O)N[C@@H](CS)C(=O)N[C@@H](CCCNC(=N)N)C(=O)N[C@@H](CCCNC(=N)N)C(=O)N[C@@H](CCCNC(=N)N)C(=O)O)C(C)C [NCR247] (H-RNGCIVDPRCPYQQCRRPLYCRRR-OH; N-terminus and C-terminus assumed) | 100 µg/mL | exhibited anticandidal activity | 29.65 ± 12.6% | could be prevented | 14 (±9) μg/mL | 25 (±2) μg/mL | 14 (±10) μg/mL | 16.5 (±13) μg/mL | –
EDIGHIKYCGIVDDCYKSKKPLFKIWKCVENVCVLWYK [NCR169] | 100 µg/mL | – | no calcein release | unable to prevent vaginal epithelial cell death | – | – | – | – | –
